The subject of data set [1] is TCF/LEF dependent reporter gene (wnt/beta-catenin signaling) in HEK293 cells. The data set is described as follows: Top-flash assay: HEK293 cells transfected with a TCF/LEF dependent reporter gene. It counts as cell-based. As to conditions: for inhibition of wnt-signaling path in HEK293 reporter assay: even at concentrations of 50 uM. Here is the method:
FIG. 2 in graphic form illustrates data comparing inhibition of beta-catenin in a “Top-flash assay.” In this assay HEK 293 cells were transfected with a TCF/LEF dependent reporter gene and expression plasmid for Dsh. After overnight incubation, the cells were treated with the indicated amounts of debromohymenialdesine (“MC-001”, or dBHD, or dbHD), which is compound I in FIG. 1, analog II and III, or vehicle alone, after which the reporter gene activity was measured. All cells were also transfected with a reporter gene control for testing the transfection efficiency. In FIG. 2, the first pair of bars (to the left, closest to the y, or “fold induction”, axis) is DMSO, then moving right, the second pair of bars is 5 μM debromohymenialdesine, or dbHD (compound I of FIG. 1), then 10 μM dbHD, then 20 μM dbHD, then 50 μM compound II of FIG. 1, then 50 μM compound III of FIG. 1.
A dose response curve for debromohymenialdesine, or “MC-001”, or dbHD (or dBHD), (compound I of FIG. 1) from the HEK293 cell line assay is shown in FIG. 3. The curve is well behaved showing a relatively steep sigmoidal inhibition-concentration profile with an IC50 value of 2 uM.

The nature of data set [2]: log P (partition coefficient). It counts as physicochemical.
The subject of the next data set is normal HSC. Kind of data set: Replating of normal HSC. The class given is cell-based. As to conditions: at doses that inhibited CML HSC and GMP. Here is the method: (§1) On day 10, individual colonies were plucked and replicated in new methylcellulose and the replating efficiency was determined.
The subject of data set [3] is chronic myelogenous leukemia stem cell (CML HSC). The data set is described as follows: Replating efficiency (self-renewal) of CML hematopoietic stem cells. The class given is cell-based. The settings on record: for self-renewal / replating efficiency of leukemia stem cells: 2 uM drug concentration; for inhibition of CML HSC replating: replating efficiency after day 10 colony replating in methylcellulose. Here is the method: as §1

The test system of data set [4] is GMP from advanced phase CML. Kind of data set: Replating efficiency of CML GMP. The class given is cell-based. As to conditions: replating efficiency after day 10 colony replating in methylcellulose. Here is the method:
as §1

The nature of the next data set: Solubility in water. It counts as physicochemical.
The nature of a further data set: Storage stability. It counts as physicochemical. As to conditions: at RT.
A further data set deals with BALB/C mice. Kind of data set: Toxicity tests in mice. The settings on record: for toxic / adverse effects in mice: doses up to 100 mg/kg. It counts as in vivo.

Converted amounts (≈) assume the structure as drawn.

As to `c1ccc2nc3ccccc3c-2nc1` [indoloazepine, reference compound], the “inhibition of wnt-signaling path in HEK293 reporter assay” value (from here on “inhibition of wnt-signaling path”) in data set [1] is “did not inhibit”.
What is called IC50 is the concentration that gives 50% inhibition. In general, logP refers to the decadic logarithm of the partition coefficient of the neutral form, usually between octanol and water. The low end stands for a more hydrophilic compound, the high end for a more lipophilic compound. For orientation: solubility means the dissolved amount per volume that the medium holds. Low values mean little dissolved substance, high ones much dissolved substance. `NC1=NC(=O)/C(=C2\CCNC(=O)c3[nH]ccc32)N1` [debromohymenialdesine, (4Z)-4-(2-amino-5-oxo-3,5-dihydro-4H-imidazol-4-ylidene)-4,5,6,7-tetrahy-dropyrrolo(2,3-c)azepin-8(1H)-one]: in data set [1], the “inhibition of wnt-signaling in HEK293 cells transfected with a TCF/LEF dependent reporter gene” value is recorded as “inhibited”. The IC50 in data set [1] (Homo sapiens, HEK293 cells, TCF/LEF dependent reporter gene, read-out: IC50 from dose response curve, HEK293 cell line assay) came to 2000 nM. The “activity of synthetically obtained compound versus natural product” value in data set [1] (compound made by total synthesis, cell based reporter system) is “comparable to the natural product”. The logP in data set [2] was -0.58. Also, in the data set with normal HSC, the “effect on normal HSC replating” value was “spared”. Moreover, the entries for the “self-renewal / replating efficiency of leukemia stem cells” value in data set [3] and in data set [3] (listed as MC-001) were “completely abrogated” and “completely abrogates”, respectively. Also, the “inhibition of CML HSC replating” value in data set [3] was “inhibited”. Further, the “inhibition of CML GMP replating” value in data set [4] was “inhibited”. Besides, the concentration in solution in the data set “Solubility in water” (solubility) came to 22 µg/mL (≈ 89.7 µM). Besides, in “Storage stability”, the Storage stability entry is listed as “several months”. Moreover, the “toxic / adverse effects in mice” value in the data set with BALB/C mice (listed as MC-001) is “no adverse affects”; with BALB/C mice (listed as dBHD) it was “no toxic effects”. Moreover, in the data set with BALB/C mice (mouse, in vivo), the tolerability in mice result is “well tolerated”.
For the molecule `NC1=NC(=O)/C(=C2\CCNC(=O)c3[nH]c(Br)cc32)N1` [Hymenialdesine, hymenialdesine, reference compound], the “inhibition of wnt-signaling path” value in data set [1] was “did not inhibit”.
With `NC1=N[C@]23CCCN2C(=O)c2cc(Br)c(Br)n2[C@@H]3N1` [dibromophakelin, reference compound], in data set [1], the “inhibition of wnt-signaling path” value was “did not inhibit”.

B1: Recombinant Dkk1: recombinant Dkk1, a Wnt inhibitor used as comparator (protein, UniProt O94907 32-266, looked up)
Dickkopf-related protein 1: TLNSVLNSNAIKNLPPPLGGAAGHPGSAVSAAPGILYPGGNKYQTIDNYQPYPCAEDEECGTDEYCASPTRGGDAGVQICLACRKRRKRCMRHAMCCPGNYCKNGICVSSDQNHFRGEIEETITESFGNDHSTLDGYSRRTTLSSKMYHTKGQEGSVCLRSSDCASGLCCARHFWSKICKPVLKEGQVCTKHRRKGSHGLEIFQRCYCGEGLSCRIQKDHHQASNSSRLHTCQRH
For B1, the “inhibition of CML HSC replating” value in data set [3] was “did not inhibit”.
